In brackets after ≈: the same amount, converted by molar mass. Where two headings read alike, the source gives them in different places.
Legend:
[1] = target: T1, DOXP reductoisomerase of Escherichia coli (UniProt P56139); test: inhibition of recombinant DOXP reductoisomerase (NADPH oxidation); assay type: biochemical; details: 1 mM DOXP, 0,3 mM NADPH, pH 7,5; read-out: IC50(nM) of DOXP reductoisomerase from Helicobacter pilori
T1 sequence (P56139 1-368): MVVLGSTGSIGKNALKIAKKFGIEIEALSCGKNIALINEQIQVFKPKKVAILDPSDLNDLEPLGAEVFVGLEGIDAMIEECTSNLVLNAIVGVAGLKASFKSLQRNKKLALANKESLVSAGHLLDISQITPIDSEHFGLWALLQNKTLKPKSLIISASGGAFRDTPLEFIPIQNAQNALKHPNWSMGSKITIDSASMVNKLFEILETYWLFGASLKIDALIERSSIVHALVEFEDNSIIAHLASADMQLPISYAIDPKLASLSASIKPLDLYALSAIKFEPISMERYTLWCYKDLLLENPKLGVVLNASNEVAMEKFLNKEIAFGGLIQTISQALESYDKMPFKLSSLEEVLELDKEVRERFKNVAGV

Plasmodium falciparum = test: antimalaria activity on in vitro cultures, [3H]-hypoxanthine incorporation; assay type: cell-based; details: 72 h, inhibition of [3H]-hypoxanthine incorporation, 48 + 24 hours, read-out: IC50(nM) of malaria culture (Plasmodium falciparum)
Description: The antimalaria activity of the compounds listed on page 9 was determined on in vitro cultures of the malaria pathogen Plasmodium falciparum. The depressions of a 96-well microtitre plate were charged with in each case 200 μl of an asynchroneous Plasmodium falciparum culture at a parasitaemia of 0,4% and haematokrit of 2%. A serial dilution series of the compounds in triple steps between concentrations of 100 to 0,14 μmol 1^−1 was then prepared. The plates were incubated at 37° C., 3% CO2 and 5% O2 over a period of 48 hours. 30 μl medium supplemented with 27 μCi ml^−1 [^3H]-hypoxanthine were then added to each well. After incubation for 24 hours the parasites were harvested by filtration on a glass fibre filter and the radioactivity which had been incorporated was measured. The inhibition of the growth of parasites was measured as the percentage inhibition of the incorporation of tritium. Inhibition of the growth of the parasites has been determined as percentage inhibition of incorporation of tritium based on a comparison without the substance. The half-maximum inhibitory concentration (IC50) of the substance was determined by extrapolation of the values.

Pseudomonas aeruginosa = test: antibacterial activity, minimum inhibition concentration in liquid culture; assay type: cell-based; details: read-out: MIC(nM) of bacteria culture (Pseudomonas aeruginosa)
Description: A dilution series comprising the concentrations 500, 100, 50, 10 and 0 μmol 1^−1 of the individual compounds in LB medium is introduced into 5 culture microtubes in a volume of 0,5 ml. The tubes were inoculated with 10 μl of an overnight culture of E. coli K12 and shaken overnight at 37° C. The growth of the bacteria was assessed on the basis of the turbidity of the medium. The minimum concentration causing inhibition of bacterial growth was determined (minimum inhibition concentration MIC)
The antibacterial activity of P. aeruginosa was determined in the same manner.

Echinochloa = test: herbicidal activity, Hydro Vorauflauf; assay type: in vivo; details: for pest or weed control at 1000 g/ha: 1000 Gramm/Hektar
Description: (§1) The determination of herbicidal activity is performed according to standard procedure. Again the compounds listed on page 9 are tested.

Lepidium = test: herbicidal activity, Hydro Vorauflauf; assay type: in vivo; details: for pest or weed control at 1000 g/ha: 1000 Gramm/Hektar
Description: as §1

Reis = test: herbicidal activity, Hydro Vorauflauf; assay type: in vivo; details: for pest or weed control at 1000 g/ha: 1000 Gramm/Hektar
Description: as §1

Solanum = test: herbicidal activity, Hydro Vorauflauf; assay type: in vivo; details: for pest or weed control at 1000 g/ha: 1000 Gramm/Hektar
Description: as §1

Abutilon theophrasti [2] = test: herbicidal activity, Erde Vorauflauf; assay type: in vivo; details: for pest or weed control at 500 g/ha: 500 Gramm/Hektar
Description: as §1

Alopecurus myosuroides [3] = test: herbicidal activity, Erde Vorauflauf; assay type: in vivo; details: for pest or weed control at 500 g/ha: 500 Gramm/Hektar
Description: as §1

Amaranthus retroflexus [4] = test: herbicidal activity, Erde Vorauflauf; assay type: in vivo; details: for pest or weed control at 500 g/ha: 500 Gramm/Hektar
Description: as §1

Avena fatua [5] = test: herbicidal activity, Erde Vorauflauf; assay type: in vivo; details: for pest or weed control at 500 g/ha: 500 Gramm/Hektar
Description: as §1

Beta vulgaris [6] = test: herbicidal activity, Erde Vorauflauf; assay type: in vivo; details: for plant injury at 500 g/ha: 500 Gramm/Hektar
Description: as §1

Cyperus esculentus [7] = test: herbicidal activity, Erde Vorauflauf; assay type: in vivo; details: for pest or weed control at 500 g/ha: 500 Gramm/Hektar
Description: as §1

Galium aperine [8] = test: herbicidal activity, Erde Vorauflauf; assay type: in vivo; details: for pest or weed control at 500 g/ha: 500 Gramm/Hektar
Description: as §1

Setaria viridis [9] = test: herbicidal activity, Erde Vorauflauf; assay type: in vivo; details: for pest or weed control at 500 g/ha: 500 Gramm/Hektar
Description: as §1

Sinapis arvensis [10] = test: herbicidal activity, Erde Vorauflauf; assay type: in vivo; details: Mutarda arvensis; for pest or weed control at 500 g/ha: 500 Gramm/Hektar
Description: as §1

Xanthium strumarium [11] = test: herbicidal activity, Erde Vorauflauf; assay type: in vivo; details: for pest or weed control at 500 g/ha: 500 Gramm/Hektar
Description: as §1

Zea mays [12] = test: herbicidal activity, Erde Vorauflauf; assay type: in vivo; details: for plant injury at 500 g/ha: 500 Gramm/Hektar
Description: as §1

Abutilon theophrasti [13] = test: herbicidal activity, Erde Nachauflauf; assay type: in vivo; details: for pest or weed control at 500 g/ha: 500 Gramm/Hektar
Description: as §1

Alopecurus myosuroides [14] = test: herbicidal activity, Erde Nachauflauf; assay type: in vivo; details: for pest or weed control at 500 g/ha: 500 Gramm/Hektar
Description: as §1

Amaranthus retroflexus [15] = test: herbicidal activity, Erde Nachauflauf; assay type: in vivo; details: for pest or weed control at 500 g/ha: 500 Gramm/Hektar
Description: as §1

Avena fatua [16] = test: herbicidal activity, Erde Nachauflauf; assay type: in vivo; details: for pest or weed control at 500 g/ha: 500 Gramm/Hektar
Description: as §1

Beta vulgaris [17] = test: herbicidal activity, Erde Nachauflauf; assay type: in vivo; details: for plant injury at 500 g/ha: 500 Gramm/Hektar
Description: as §1

Cyperus esculentus [18] = test: herbicidal activity, Erde Nachauflauf; assay type: in vivo; details: for pest or weed control at 500 g/ha: 500 Gramm/Hektar
Description: as §1

Galium aperine [19] = test: herbicidal activity, Erde Nachauflauf; assay type: in vivo; details: for pest or weed control at 500 g/ha: 500 Gramm/Hektar
Description: as §1

Setaria viridis [20] = test: herbicidal activity, Erde Nachauflauf; assay type: in vivo; details: for pest or weed control at 500 g/ha: 500 Gramm/Hektar
Description: as §1

Sinapis arvensis [21] = test: herbicidal activity, Erde Nachauflauf; assay type: in vivo; details: Mutarda arvensis; for pest or weed control at 500 g/ha: 500 Gramm/Hektar
Description: as §1

Xanthium strumarium [22] = test: herbicidal activity, Erde Nachauflauf; assay type: in vivo; details: for pest or weed control at 500 g/ha: 500 Gramm/Hektar
Description: as §1

Zea mays [23] = test: herbicidal activity, Erde Nachauflauf; assay type: in vivo; details: for plant injury at 500 g/ha: 500 Gramm/Hektar
Description: as §1

Compound: CC1(C)CON(C(=O)CP(C)(=O)O)C1=O [Compound 1]
- IC50 [1]: 22 nM
- IC50 (Plasmodium falciparum): 800 nM
- MIC (Pseudomonas aeruginosa; LB medium, overnight at 37° C., turbidity): 500 nM (≈ 0.118 µg/mL)
- pest or weed control at 1000 g/ha (Echinochloa): 80%
- pest or weed control at 1000 g/ha (Lepidium): 40%
- pest or weed control at 1000 g/ha (Reis): 50%
- pest or weed control at 1000 g/ha (Solanum): 0%
- pest or weed control at 500 g/ha (Abutilon theophrasti [2]): 0%
- pest or weed control at 500 g/ha (Alopecurus myosuroides [3]): 50%
- pest or weed control at 500 g/ha (Amaranthus retroflexus [4]): 0%
- pest or weed control at 500 g/ha (Avena fatua [5]): 0%
- plant injury at 500 g/ha (Beta vulgaris [6]): 30%
- pest or weed control at 500 g/ha (Cyperus esculentus [7]): 0%
- pest or weed control at 500 g/ha (Galium aperine [8]): 0%
- pest or weed control at 500 g/ha (Setaria viridis [9]): 0%
- pest or weed control at 500 g/ha (Sinapis arvensis [10]): 40%
- pest or weed control at 500 g/ha (Xanthium strumarium [11]): 0%
- plant injury at 500 g/ha (Zea mays [12]): 0%
- pest or weed control at 500 g/ha (Abutilon theophrasti [13]): 40%
- pest or weed control at 500 g/ha (Alopecurus myosuroides [14]): 50%
- pest or weed control at 500 g/ha (Amaranthus retroflexus [15]): 0%
- pest or weed control at 500 g/ha (Avena fatua [16]): 50%
- plant injury at 500 g/ha (Beta vulgaris [17]): 70%
- pest or weed control at 500 g/ha (Cyperus esculentus [18]): 0%
- pest or weed control at 500 g/ha (Galium aperine [19]): 90%
- pest or weed control at 500 g/ha (Setaria viridis [20]): 95%
- pest or weed control at 500 g/ha (Sinapis arvensis [21]): 95%
- pest or weed control at 500 g/ha (Xanthium strumarium [22]): 60%
- plant injury at 500 g/ha (Zea mays [23]): 80%

Compound: O=C1CCON1CC(O)CP(=O)(O)O (stereo not drawn) [Compound 2]
- IC50 [1]: 110 nM
- IC50 (Plasmodium falciparum): 1200 nM
- MIC (Pseudomonas aeruginosa): 1600 nM (≈ 0.36 µg/mL)
- pest or weed control at 1000 g/ha (Echinochloa): 0%
- pest or weed control at 1000 g/ha (Lepidium): 0%
- pest or weed control at 1000 g/ha (Reis): 0%
- pest or weed control at 1000 g/ha (Solanum): 0%
- pest or weed control at 500 g/ha (Abutilon theophrasti [2]): 0%
- pest or weed control at 500 g/ha (Alopecurus myosuroides [3]): 0%
- pest or weed control at 500 g/ha (Amaranthus retroflexus [4]): 0%
- pest or weed control at 500 g/ha (Avena fatua [5]): 0%
- plant injury at 500 g/ha (Beta vulgaris [6]): 0%
- pest or weed control at 500 g/ha (Cyperus esculentus [7]): 0%
- pest or weed control at 500 g/ha (Galium aperine [8]): 0%
- pest or weed control at 500 g/ha (Setaria viridis [9]): 0%
- pest or weed control at 500 g/ha (Sinapis arvensis [10]): 0%
- pest or weed control at 500 g/ha (Xanthium strumarium [11]): 0%
- plant injury at 500 g/ha (Zea mays [12]): 0%
- pest or weed control at 500 g/ha (Abutilon theophrasti [13]): 0%
- pest or weed control at 500 g/ha (Alopecurus myosuroides [14]): 0%
- pest or weed control at 500 g/ha (Amaranthus retroflexus [15]): 0%
- pest or weed control at 500 g/ha (Avena fatua [16]): 30%
- plant injury at 500 g/ha (Beta vulgaris [17]): 0%
- pest or weed control at 500 g/ha (Cyperus esculentus [18]): 0%
- pest or weed control at 500 g/ha (Galium aperine [19]): 0%
- pest or weed control at 500 g/ha (Setaria viridis [20]): 90%
- pest or weed control at 500 g/ha (Sinapis arvensis [21]): 30%
- pest or weed control at 500 g/ha (Xanthium strumarium [22]): 50%
- plant injury at 500 g/ha (Zea mays [23]): 0%

Compound: CC1CON(COCP(C)(=O)O)C1=O (stereo not drawn) [Compound 3]
- IC50 [1]: 125 nM
- IC50 (Plasmodium falciparum): 1700 nM
- MIC (Pseudomonas aeruginosa): 2200 nM (≈ 0.491 µg/mL)
- pest or weed control at 4000 g/ha (Echinochloa; 4000 Gramm/Hektar): 40%
- pest or weed control at 4000 g/ha (Lepidium; 4000 Gramm/Hektar): 30%
- pest or weed control at 4000 g/ha (Reis; 4000 Gramm/Hektar): 40%
- pest or weed control at 4000 g/ha (Solanum; 4000 Gramm/Hektar): 0%
- pest or weed control at 2000 g/ha (Abutilon theophrasti [2]; 2000 Gramm/Hektar): 0%
- pest or weed control at 2000 g/ha (Alopecurus myosuroides [3]; 2000 Gramm/Hektar): 60%
- pest or weed control at 2000 g/ha (Amaranthus retroflexus [4]; 2000 Gramm/Hektar): 0%
- pest or weed control at 2000 g/ha (Avena fatua [5]; 2000 Gramm/Hektar): 0%
- plant injury at 2000 g/ha (Beta vulgaris [6]; 2000 Gramm/Hektar): 30%
- pest or weed control at 2000 g/ha (Cyperus esculentus [7]; 2000 Gramm/Hektar): 0%
- pest or weed control at 2000 g/ha (Galium aperine [8]; 2000 Gramm/Hektar): 0%
- pest or weed control at 2000 g/ha (Setaria viridis [9]; 2000 Gramm/Hektar): 0%
- pest or weed control at 2000 g/ha (Sinapis arvensis [10]; 2000 Gramm/Hektar): 30%
- pest or weed control at 2000 g/ha (Xanthium strumarium [11]; 2000 Gramm/Hektar): 0%
- plant injury at 2000 g/ha (Zea mays [12]; 2000 Gramm/Hektar): 0%
- pest or weed control at 2000 g/ha (Abutilon theophrasti [13]; 2000 Gramm/Hektar): 60%
- pest or weed control at 2000 g/ha (Alopecurus myosuroides [14]; 2000 Gramm/Hektar): 60%
- pest or weed control at 2000 g/ha (Amaranthus retroflexus [15]; 2000 Gramm/Hektar): 60%
- pest or weed control at 2000 g/ha (Avena fatua [16]; 2000 Gramm/Hektar): 50%
- plant injury at 2000 g/ha (Beta vulgaris [17]; 2000 Gramm/Hektar): 90%
- pest or weed control at 2000 g/ha (Cyperus esculentus [18]; 2000 Gramm/Hektar): 0%
- pest or weed control at 2000 g/ha (Galium aperine [19]; 2000 Gramm/Hektar): 40%
- pest or weed control at 2000 g/ha (Setaria viridis [20]; 2000 Gramm/Hektar): 70%
- pest or weed control at 2000 g/ha (Sinapis arvensis [21]; 2000 Gramm/Hektar): 70%
- pest or weed control at 2000 g/ha (Xanthium strumarium [22]; 2000 Gramm/Hektar): 60%
- plant injury at 2000 g/ha (Zea mays [23]; 2000 Gramm/Hektar): 70%

— patent publication US6638957B1, “Use of compounds with a nitrogen-oxygen heterocycle” (Jomaa Pharmaka GmbH, priority 1999, dated 2003)
